Laboratory results as given in ChEMBL document CHEMBL2203171, “The use of small molecule probes to study spatially separated stimulus-induced signaling pathways” (Bioorg Med Chem Lett, 2012).
Activity calls are given as the source filed them. No cut-off for these calls is given here.

What was measured:
[1] = biological target: T1, Inhibitor of nuclear factor kappa-B kinase subunit beta (Mus musculus) (UniProt O88351); test: Inhibition of IKKbeta in C57BL/6 mouse BMDM cells assessed as inhibition of LPS-induced MCP1 […] at 25 uM by Northern blot analysis; assay type: cell-based
T1 sequence (whole entry): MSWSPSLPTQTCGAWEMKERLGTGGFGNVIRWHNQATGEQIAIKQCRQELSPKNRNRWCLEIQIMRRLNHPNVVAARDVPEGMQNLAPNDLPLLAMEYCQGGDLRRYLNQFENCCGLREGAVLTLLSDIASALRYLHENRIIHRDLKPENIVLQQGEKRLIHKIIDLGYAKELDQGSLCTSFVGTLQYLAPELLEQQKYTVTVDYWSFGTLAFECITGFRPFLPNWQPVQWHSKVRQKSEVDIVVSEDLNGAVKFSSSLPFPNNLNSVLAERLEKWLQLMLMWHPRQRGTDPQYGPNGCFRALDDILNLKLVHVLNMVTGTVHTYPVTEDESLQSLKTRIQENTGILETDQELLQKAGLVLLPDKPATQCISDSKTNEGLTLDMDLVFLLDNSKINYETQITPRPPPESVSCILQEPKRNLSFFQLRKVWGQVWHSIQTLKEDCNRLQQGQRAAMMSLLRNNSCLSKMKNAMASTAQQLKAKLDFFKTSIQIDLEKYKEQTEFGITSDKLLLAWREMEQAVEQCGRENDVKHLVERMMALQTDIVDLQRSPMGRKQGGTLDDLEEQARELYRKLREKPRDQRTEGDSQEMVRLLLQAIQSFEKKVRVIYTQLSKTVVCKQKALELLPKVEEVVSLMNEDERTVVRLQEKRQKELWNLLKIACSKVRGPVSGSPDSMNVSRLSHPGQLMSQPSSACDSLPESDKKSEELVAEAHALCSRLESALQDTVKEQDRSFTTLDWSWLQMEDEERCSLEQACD

[2] = biological target: MAP kinase p38 (Mus musculus) (UniProt P47811+O08911+Q9WUI1+Q9Z1B7); test: Inhibition of MAPK p38 in C57BL/6 mouse BMDM cells assessed as inhibition of TNFalpha-induced phosphorylation at 50 uM up to 90 mins by Western blot analysis; assay type: cell-based
[3] = biological target: T1, Inhibitor of nuclear factor kappa-B kinase subunit beta (Mus musculus); test: Inhibition of IKKbeta in C57BL/6 mouse BMDM cells assessed as inhibition of TNFalpha-induced IkappaBalpha phosphorylation at 25 uM by Western blot analysis

O=C(CCCCCN1C(=O)C=CC1=O)Oc1ccc2cc(C(C(=O)NCc3ccccc3)N(C(=O)Cc3ccc4c(c3)OCO4)C3CC3)ccc2c1 (stereo not drawn)
inhibition [1]: Active
inhibition [2]: inactive
inhibition [3]: inactive
